This is an account of results in ChEMBL document CHEMBL3867472, “Discovery of benzofuran propanoic acid GPR120 agonists: From uHTS hit to mechanism-based pharmacodynamic effects” (Bioorg Med Chem Lett, 2016).

Broadly, the EC50 is the midpoint of the concentration-response curve.

In assay [1] the target is T1, Free fatty acid receptor 4 (Homo sapiens) (UniProt Q5NUL3).
T1 sequence (whole entry): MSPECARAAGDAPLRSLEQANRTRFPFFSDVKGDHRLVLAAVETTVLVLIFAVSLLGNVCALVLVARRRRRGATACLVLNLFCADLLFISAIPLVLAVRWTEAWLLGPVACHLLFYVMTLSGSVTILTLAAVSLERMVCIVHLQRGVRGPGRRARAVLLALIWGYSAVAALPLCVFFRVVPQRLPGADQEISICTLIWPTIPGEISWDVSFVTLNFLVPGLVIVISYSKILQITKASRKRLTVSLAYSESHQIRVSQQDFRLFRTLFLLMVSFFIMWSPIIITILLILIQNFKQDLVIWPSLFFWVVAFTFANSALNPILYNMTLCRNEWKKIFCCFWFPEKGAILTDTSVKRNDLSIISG
Briefly: Agonist activity at human GPR120 expressed in CHOK1 cells measured after 60 mins by IP1-HTRF assay relative to basal level. The class given is functional, cell-based. As to conditions: CHO-K1. Also noted: concentration or dose not given beside the values. (TR-FRET usually uses a lanthanide donor and a delayed reading to cut background.)

The target of assay [2] is T2, Free fatty acid receptor 4 (Mus musculus, UniProt Q7TMA4).
T2 sequence (Q7TMA4 whole entry): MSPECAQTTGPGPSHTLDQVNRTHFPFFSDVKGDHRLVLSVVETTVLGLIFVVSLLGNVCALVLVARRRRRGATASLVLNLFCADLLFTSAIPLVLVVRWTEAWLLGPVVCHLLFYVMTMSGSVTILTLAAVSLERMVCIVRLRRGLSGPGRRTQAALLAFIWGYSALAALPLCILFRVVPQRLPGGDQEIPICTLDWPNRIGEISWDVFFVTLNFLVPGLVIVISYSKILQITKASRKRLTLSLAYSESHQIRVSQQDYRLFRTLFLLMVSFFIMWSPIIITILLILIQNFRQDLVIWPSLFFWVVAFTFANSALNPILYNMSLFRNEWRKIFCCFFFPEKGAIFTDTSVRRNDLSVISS
The experiment in a line: Agonist activity at mouse GPR120 expressed in CHOK1 cells measured after 60 mins by IP1-HTRF assay. The format is functional, cell-based, CHO-K1.

In assay [3] the target is T3, Free fatty acid receptor 1 (Homo sapiens, UniProt O14842). The experiment in a line: Agonist activity at human GPR40 measured after 60 mins by IP1-HTRF assay. The class given is functional.
Assay [4] concerns the target T4, Free fatty acid receptor 4 (Mus musculus) (UniProt Q7TMA4).
T4 sequence (whole entry): T2 sequence (Q7TMA4 whole entry)
The experiment in a line: Agonist activity at mouse GPR120 expressed in CHOK1 cells measured after 60 mins by IP1-HTRF assay relative to basal level. Set-up: concentration or dose not given beside the values. As to conditions: CHO-K1. The class given is functional, cell-based.

The target of assay [5] is T3, Free fatty acid receptor 1. Briefly: Agonist activity at human GPR40 measured after 60 mins by IP1-HTRF assay relative to basal level. The class given is functional. Set-up: concentration or dose not given beside the values.
The target of assay [6] is T5, Free fatty acid receptor 4 (Homo sapiens, UniProt Q5NUL3).
T5 sequence (Q5NUL3 whole entry): T1 sequence (whole entry)
The experiment in a line: Agonist activity at human GPR120 expressed in CHOK1 cells measured after 60 mins by IP1-HTRF assay. The class given is functional, cell-based, CHO-K1.

T3 sequence (O14842 whole entry): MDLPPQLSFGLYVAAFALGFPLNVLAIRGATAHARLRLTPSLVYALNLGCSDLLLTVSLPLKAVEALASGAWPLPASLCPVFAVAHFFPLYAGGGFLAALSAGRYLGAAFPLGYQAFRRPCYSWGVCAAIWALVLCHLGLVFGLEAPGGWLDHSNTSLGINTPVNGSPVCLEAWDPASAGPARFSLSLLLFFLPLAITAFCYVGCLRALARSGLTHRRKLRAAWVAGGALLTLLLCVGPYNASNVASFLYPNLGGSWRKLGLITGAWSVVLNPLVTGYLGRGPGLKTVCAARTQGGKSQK

Take `Cc1cc(-c2cc(OC(F)(F)F)ccc2F)ccc1OCCCC(=O)O`: the figures for the Activity in assay [1], in assay [4] and in assay [5] were 52%, 37% and 34%, respectively. Moreover, the EC50 stood at 79 nM in assay [2], 9260 nM in assay [3] and 308 nM in assay [6].

Consider `O=C(O)CCCOc1ccc(-c2ccccc2Oc2ccccc2)cc1`, for which the Activity in assay [1] was found to be 25%; in assay [4], 21%. The results for the concentration giving a half-maximal response (EC50) in assay [2], in assay [3] and in assay [6] were 418 nM, > 9950 nM and 546 nM, respectively.

For the compound `Cc1cc(-c2cc(OC(F)(F)F)ccc2F)cc(C)c1OCCCC(=O)O`, the Activity in assay [1] turned out to be 87%; in assay [4], 86%. Moreover, the EC50 in assay [2] was 47 nM; in assay [3], > 9950 nM; in assay [6], 149 nM.

Take `O=C(O)CCCOc1ccc(-c2cccc(OCc3ccccc3)c2)cc1`: the EC50 in assay [2], in assay [3] and in assay [6] was > 9950 nM each time.

For `CCOc1ccc(Cl)c(-c2ccc(OCCCC(=O)O)cc2)c1`, the Activity amounted to 66% in assay [1], 65% in assay [4] and 30% in assay [5]. For the same compound, the EC50 in assay [2] was determined as 32 nM; in assay [3] it was 1130 nM; in assay [6], 121 nM.

As to `O=C(O)CCCOc1ccc(-c2cccc(Oc3ccccc3)c2)cc1`, the Activity in assay [1] worked out at 46%; in assay [4], 58%; in assay [5] it was 54%. For the same compound, the EC50 in assay [2] worked out at 67 nM; in assay [3] it was 6800 nM; in assay [6] it was 170 nM.

For `O=C(O)CCc1cc2cc(-c3cc(C(=O)C4CC4)ccc3F)ccc2o1`, the Activity in assay [1] was 92%; in assay [4], 75%. In addition, the 50% effective concentration (EC50) is 22 nM in assay [2], > 9950 nM in assay [3] and 97 nM in assay [6].

`O=C(O)CCc1cc2cc(-c3cccc(OC4CCC4)c3)ccc2o1`: the Activity in assay [1] amounted to 65%; in assay [4], 66%; in assay [5] it was 40%. For the same compound, the concentration giving a half-maximal response (EC50) was 35 nM in assay [2], 2500 nM in assay [3] and 153 nM in assay [6].

Regarding `CC(CC(=O)O)c1cc2cc(-c3cc(OC(F)(F)F)ccc3F)ccc2o1` (racemic), the figures for the Activity in assay [1] and in assay [4] were 24% and 57%, respectively. Moreover, the EC50 was 74 nM in assay [2], > 9950 nM in assay [3] and 819 nM in assay [6].

Consider `Cc1cc(OCCCC(=O)O)ccc1-c1cc(OC(F)(F)F)ccc1Cl`, for which the results for the Activity in assay [1] and in assay [4] were 32% and 29%, respectively. Besides, the values for the concentration for a half-maximal effect (EC50) in assay [2], in assay [3] and in assay [6] were 78 nM, > 9950 nM and 254 nM, respectively.

For `O=C(O)CCc1cc2cc(-c3cc(Cl)cc(OC4CCC4)c3)ccc2o1`, the Activity in assay [1] is 50%; in assay [4], 55%. In addition, the EC50 in assay [2] is 64 nM; in assay [3], > 9950 nM; in assay [6], 188 nM.

Take `O=C(O)CCCOc1ccc(-c2ccccc2C(F)(F)F)cc1`: the Activity amounted to 31% in assay [1] and 15% in assay [4]. In addition, the 50% effective concentration (EC50) in assay [2] was 2190 nM; in assay [3], > 9950 nM; in assay [6] it was 8170 nM.

With `O=C(O)CCCOc1ccc(-c2ccccc2OC(F)(F)F)cc1`, the Activity was 19% in assay [1] and 20% in assay [4]. The EC50 was 1870 nM in assay [2], > 9950 nM in assay [3] and 3000 nM in assay [6].

`O=C(O)CCCOc1ccc(-c2cc(Oc3cccnc3)ccc2Cl)cc1`: the Activity worked out at 58% in assay [1] and 77% in assay [4]. For the same compound, the values for the 50% effective concentration (EC50) in assay [2], in assay [3] and in assay [6] were 34 nM, > 9950 nM and 88 nM, respectively.

For the compound `COc1cccc(Oc2cccc(-c3ccc(OCCCC(=O)O)cc3)c2)c1`, the Activity came to 19% in assay [1], 20% in assay [4] and 101% in assay [5]. Moreover, the half-maximal effective concentration (EC50) was 264 nM in assay [2], 6310 nM in assay [3] and 498 nM in assay [6].

As for `Cc1ccc(Oc2cccc(-c3ccc(OCCCC(=O)O)cc3)c2)cc1`, the Activity in assay [1] is 77%; in assay [4] it was 83%. Also, the EC50 in assay [2] is 66 nM; in assay [3] it was > 9950 nM; in assay [6] it was 182 nM.

For the compound `O=C(O)CCC1Cc2cc(-c3cc(OC(F)(F)F)ccc3F)ccc2O1` (stereo in doubt; 45) [listing 1 of 2 here], the Activity was 49% in assay [1], 65% in assay [4] and 91% in assay [5].

On to `O=C(O)CCCOc1ccc(-c2cc(OC(F)(F)F)ccc2F)cc1`, for which the Activity in assay [1] is 16%; in assay [4], 34%; in assay [5], 91%. Further, the concentration giving a half-maximal response (EC50) in assay [2] is 432 nM; in assay [3], 4220 nM; in assay [6], 946 nM.

Regarding `O=C(O)CCCOc1ccc(-c2cc(Oc3cccc(F)c3)ccc2F)cc1`, the Activity in assay [1] came to 107%; in assay [4] it was 98%; in assay [5], 110%. Besides, the half-maximal effective concentration (EC50) in assay [2] is 27 nM; in assay [3] it was 9460 nM; in assay [6], 60 nM.

With `O=C(O)CCCOc1ccc(-c2cc(OC(F)(F)F)ccc2Cl)c(F)c1`, the Activity in assay [1] amounted to 60%; in assay [4], 66%. Further, the concentration for a half-maximal effect (EC50) was 36 nM in assay [2], > 9950 nM in assay [3] and 186 nM in assay [6].

For `CC(Cc1cc2cc(-c3cc(OC(F)(F)F)ccc3F)ccc2o1)C(=O)O` (racemic), the Activity turned out to be 10% in assay [1] and 44% in assay [4]. Besides, the EC50 was 70 nM in assay [2], > 9950 nM in assay [3] and 83 nM in assay [6].

Take `Fc1ccc(OC(F)(F)F)cc1-c1ccc2oc(CCc3nn[nH]n3)cc2c1`: the EC50 in assay [2] was 316 nM; in assay [3], > 9950 nM; in assay [6] it was > 9950 nM. In assay [4], this compound had an Activity of 28%.

In the case of `O=C(O)CCC1Cc2cc(-c3cc(OC(F)(F)F)ccc3F)ccc2O1` (stereo in doubt; 44) [listing 1 of 2 here], the EC50 was 31 nM in assay [2], 1370 nM in assay [3] and 77 nM in assay [6].

For `O=C(O)CCC1Cc2cc(-c3cc(OC(F)(F)F)ccc3F)ccc2O1` (stereo in doubt; 44) [listing 2 of 2 here], the Activity in assay [1] worked out at 101%; in assay [4], 68%; in assay [5], 24%.

Take `O=C(O)c1cc2cc(-c3cc(OC(F)(F)F)ccc3F)ccc2o1`: the EC50 in assay [2], in assay [3] and in assay [6] was > 9950 nM throughout.

For the compound `O=C(O)CCCOc1ccc(-c2cc(OC3CC3)ccc2F)cc1`, the Activity in assay [1] was 68%; in assay [4] it was 61%. The results for the 50% effective concentration (EC50) in assay [2], in assay [3] and in assay [6] were 32 nM, > 9950 nM and 66 nM, respectively.

As to `O=C(O)CCc1cc2cc(-c3cc(OC(F)(F)F)ccc3Cl)ccc2o1`, the Activity in assay [1] is 69%; in assay [4] it was 76%. The figures for the EC50 in assay [2], in assay [3] and in assay [6] were 12 nM, > 9950 nM and 102 nM, respectively.

On to `O=C(O)CCC1Cc2cc(-c3cc(OC(F)(F)F)ccc3F)ccc2O1` (stereo in doubt; 45) [listing 2 of 2 here], for which the results for the concentration for a half-maximal effect (EC50) in assay [2], in assay [3] and in assay [6] were 106 nM, 1350 nM and 137 nM, respectively.
